Measured values reported in publication PMC12006963, “Application of Deuterium in an M1 Positive Allosteric Modulator Back-Up Program: The Discovery of VU6045422” (ACS Chemical Neuroscience, 2025).

Experiments:
[1] = Hepatocyte metabolite identification (rat); assay type: in vitro ADME; conditions: rat hepatocytes; 2 from 1, 4 from 3, 6 from 5
Description: (§1) Prior to full characterization of deuterated analogues 3 and 5, they were incubated in rat, dog, monkey, and human hepatocytes, along with 1, to determine the amount of parent remaining, as well as the degree of undesired oxidative metabolites 2, 4, and 6 (Figure 2). […] For the gem-dideutero congener 3, metabolic stability was improved in vitro. […] Thus, in hepatocytes in vitro, the kinetic isotope effect engendered greater metabolic stability of the labile hot spot on the lactam. It remained to be seen if this effect would translate in vivo, but we first had to assess the impact of the deuterated analogues on molecular pharmacology, in vitro DMPK, standard low-dose in vivo DMPK and, if warranted, in vivo efficacy in a rat novel object recognition (NOR) behavioral assay.

[2] = Hepatocyte metabolite identification (dog); assay type: in vitro ADME; conditions: dog hepatocytes; 2 from 1, 4 from 3, 6 from 5
Description: as §1

[3] = Hepatocyte metabolite identification (monkey); assay type: in vitro ADME; conditions: monkey hepatocytes; for % Total Peak Area, oxidative metabolite formed: 2 from 1, 4 from 3, 6 from 5
Description: as §1

[4] = target: T1, M1 (Homo sapiens, UniProt P11229); test: M1 PAM activity of oxidative metabolites; assay type: cell-based; conditions: in words
T1 construct: expressed in transfected cells
T1 sequence (P11229 1-460): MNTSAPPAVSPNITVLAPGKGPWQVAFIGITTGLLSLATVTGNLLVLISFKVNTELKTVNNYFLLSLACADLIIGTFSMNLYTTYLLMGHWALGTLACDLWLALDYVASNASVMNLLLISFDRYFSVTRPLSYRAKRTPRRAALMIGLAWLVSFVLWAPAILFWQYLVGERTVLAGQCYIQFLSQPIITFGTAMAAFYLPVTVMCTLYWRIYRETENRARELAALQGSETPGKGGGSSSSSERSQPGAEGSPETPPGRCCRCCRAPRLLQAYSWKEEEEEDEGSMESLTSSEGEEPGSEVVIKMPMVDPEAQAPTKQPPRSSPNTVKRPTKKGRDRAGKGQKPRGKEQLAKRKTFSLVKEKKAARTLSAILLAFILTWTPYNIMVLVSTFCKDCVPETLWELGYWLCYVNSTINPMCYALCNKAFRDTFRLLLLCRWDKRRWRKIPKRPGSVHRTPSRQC
Description: Procedures for Biological Experiments
Calcium mobilization assays:
All functional cell-based assays were performed in stable Chinese Hamster Ovary (CHO) cell lines constitutively expressing human M5 or human M1 receptors. For full muscarinic selectivity, CHO cells expressing human M3, human M2 plus Gqi5 or human M4 plus Gqi5 were used. Cells were plated at 15,000 cells per 20 µL per well in black 384-well, TC-treated, clear-bottomed plates (Greiner) in Ham’s F12 medium supplemented with 10% FBS and 20 mM HEPES. Cells were incubated overnight at 37 °C under 5% CO2. The following day, the medium was removed and replaced with 1.2 µM Fluo-4 AM (Invitrogen) in assay buffer (Hank’s Balanced Salt Solution supplemented with 20 mM HEPES and 2.5 mM Probenecid, pH 7.4) and the cells were incubated for 50 minutes at 37 °C under 5% CO2. Dye was then removed and replaced with 20 µL of fresh assay buffer. Test compounds at a 10 mM concentration in DMSO were serially diluted in DMSO (either 1:3 or 1:5 dilution) to create a 10-point concentration series. The DMSO solutions were then diluted in assay buffer resulting in compound solutions at 2-times the final assay concentration with the highest assay concentration of 30 µM. The compound plate, cell plate, and plates containing EC20 and EC80 acetylcholine concentrations were placed in a Hamamatsu FDSS 6000 or 7000 kinetic imaging plate reader equipped to measure Ex480/Em540 fluorescence. Data were collected at 1 frame per second. After 2 seconds of collecting baseline fluorescence, 20 µL of the compound solutions were added to the cell plate. This was followed by the addition of an EC20 concentration of acetylcholine at 142 seconds. […] The fluorescence signal was collected for a total of 300 seconds. […] Data were imported and analyzed in Dotmatics Informatics software. by normalizing all data in the individual kinetic traces to the initial fluorescence read. The magnitude of each agonist addition was then determined and normalized to the average maximum response. […] The IC50 determined using the EC80 of acetylcholine is the value reported. […]

[5] = parameters: method as in doi:10.1002/alz.045339, doi:10.1016/j.jagp.2021.01.038; conditions: humans, phase I, upon increasing dose of 1; cited from earlier work
[6] = Hepatocyte metabolite identification (human); assay type: in vitro ADME; conditions: human hepatocytes; for % Total Peak Area, oxidative metabolite formed: 2 from 1, 4 from 3, 6 from 5
Description: as §1

[7] = Dog MTD with pharmacokinetics study; assay type: in vivo; conditions: dog MTD; for ratio AUC (%) / ratio Cmax (%): 6 relative to 5; for AUC / Cmax: plasma
Excerpt: (§2) To this end, we prepared a 200 g lot of PAM 5 and performed, in parallel, a dog maximum tolerated dose (MTD) with a pharmacokinetics study and a 14-day rat exploratory toxicology and toxicokinetic study, quantifying plasma Cmax and AUC for both parent 5 and metabolite 6. […] Moreover, while exposure increased with dose, it was nonlinear. […] The series was terminated based on (1) poor and less than dose-proportional increases in systemic exposure, (2) lack of a kinetic isotope effect to diminish production of 6 in dogs and rats, and (3) strong likelihood of even higher concentrations of 6 to be present in man.

[8] = Rat 14-day exploratory toxicology and toxicokinetic study; assay type: in vivo; conditions: rat 14-day study; for ratio AUC (%) / ratio Cmax (%): 6 relative to 5
Excerpt: as §2

[9] = day 14, 300 mg/kg PO of 5, plasma
[10] = day 14, 750 mg/kg PO of 5, plasma
[11] = day 14, 1500 mg/kg PO of 5, plasma

In the case of `Cn1cc2c(-c3cc(F)c(CN4C(=O)c5cccnc5C4O)c(F)c3)cccc2n1` (stereo not shown) [compound 2], the “% Total Peak Area, oxidative metabolite formed” value (from here on “% Total Peak Area”) [1] was 23.7%, the “% Total Peak Area” value [2] was 28.3% and the “% Total Peak Area” value [3] was 74.3%. The “M1 PAM activity” value [4] was “inactive”, the “share of the total drug-related area under the curve (AUC)” value [5] was greater than 50% and the “% Total Peak Area” value [6] was 34.9%.
For `[2H]C1(O)c2ncccc2C(=O)N1Cc1c(F)cc(-c2cccc3nn(C)cc23)cc1F` (stereo not shown) [compound 4], the “% Total Peak Area” value [1] was 7.8%, the “% Total Peak Area” value [2] was 5.5% and the “reduction in oxidative metabolite production versus 2 from 1” value [3] was greater than 50%. The “% Total Peak Area” value [3] was 30.3%, the “M1 PAM activity” value [4] was “inactive” and the “reduction in oxidative metabolite production versus 2 from 1” value [6] was 50%. For the same compound, the “% Total Peak Area” value [6] was 15.2%.
For `[2H]C1(O)c2ncccc2C(=O)N1Cc1c(F)cc(-c2cccc3nn(C([2H])([2H])[2H])cc23)cc1F` (stereo not shown) [compound 6], the “% Total Peak Area” value [1] was 8.1%, the “ratio AUC (%)” value ([7]; 30 mg/kg PO of 5) was 18% and the “ratio Cmax (%)” value ([7]; 30 mg/kg PO of 5) was 19%. The AUC ([7]; 30 mg/kg PO of 5) was 6.24 µg·h/mL, the Cmax ([7]; 30 mg/kg PO of 5) was 0.455 µg/mL and the “ratio AUC (%)” value ([7]; 300 mg/kg PO of 5) was 21%. For the same compound, the “ratio Cmax (%)” value ([7]; 300 mg/kg PO of 5) was 23%, the AUC ([7]; 300 mg/kg PO of 5) was 14.1 µg·h/mL and the Cmax ([7]; 300 mg/kg PO of 5) was 0.818 µg/mL. For the same compound, the “ratio AUC (%)” value ([7]; 1000 mg/kg PO of 5) was 19%, the “ratio Cmax (%)” value ([7]; 1000 mg/kg PO of 5) was 17% and the AUC ([7]; 1000 mg/kg PO of 5) was 19.2 µg·h/mL. For the same compound, the Cmax ([7]; 1000 mg/kg PO of 5) was 0.972 µg/mL, the “% Total Peak Area” value [2] was 4.1% and the “% Total Peak Area” value [3] was 21%. The “% Total Peak Area” value ([3]; listed as VU6045587) was 21.0%, the “M1 PAM activity” value [4] was “inactive” and the “ratio AUC (%)” value ([8]; day 14, 300 mg/kg PO of 5) was 28%. The “ratio Cmax (%)” value ([8]; day 14, 300 mg/kg PO of 5) was 30%, the AUC at 14 days [8, 9] was 89.5 µg·h/mL and the Cmax at 14 days [8, 9] was 6.74 µg/mL. The “ratio AUC (%)” value ([8]; day 14, 750 mg/kg PO of 5) was 23%, the “ratio Cmax (%)” value ([8]; day 14, 750 mg/kg PO of 5) was 23% and the AUC at 14 days [8, 10] was 125 µg·h/mL. For the same compound, the Cmax at 14 days [8, 10] was 7.34 µg/mL, the “ratio AUC (%)” value ([8]; day 14, 1500 mg/kg PO of 5) was 28% and the “ratio Cmax (%)” value ([8]; day 14, 1500 mg/kg PO of 5) was 32%. For the same compound, the AUC at 14 day [8, 11] was 143 µg·h/mL, the Cmax at 14 days [8, 11] was 9.89 µg/mL and the “% Total Peak Area” value [6] was 4.9%.
